# Experimental data published in patent US20160264593A1 (priority 2013, published 2016).
# Where two headings read alike, the source gives them in different places.
# Assay: Pharmacokinetic study of 157 (and metabolite endothal) in SD rats, iv and po; plasma, liver, brain
# Type: in vivo
# Details: for AUC(0-inf) / AUC / Cmax / MRT last / half-life / concentration at 0.25 h / concentration at 1 h: 1.5 mg/kg; for AUC: read-out: AUC; for MRT last: read-out: MRT (0-t)
# Procedure: The blood, liver and brain tissue samples were collected at predetermined times from rats. […] Compound were diluted shortly before use in 4% sodium bicarbonate for sterile injection (this is the standard pediatric solution of NaHCO3 with a pH of about 8.5).
# Compound 153 was freshly prepared by diluting the drugs shortly before use in 4% sodium bicarbonate for sterile injection (this is the standard pediatric solution of NaHCO3 with a pH of about 8.5). The final concentrations of 153 solutions were 0.25 mg/mL. The 153 solutions were administered via iv or po route at dose volume of 5 ml/kg according to the latest body weight. Compound 157 was freshly prepared by diluting the drugs shortly before use in 4% sodium bicarbonate for sterile injection (this is the standard pediatric solution of NaHCO3 with a pH of about 8.5). The final concentrations of […] solutions were 0.3 mg/mL. The 157 solutions were administered via iv or po route at dose volume of 5 ml/kg according to the latest body weight.
# Twelve (12) female SD rats per group were dosed by iv with 153 or 157. The rats were fasted overnight prior to dosing, with free access to water. Foods were withheld for 2 hours post-dose. Blood, liver and brain tissue samples in two animals each group were collected at each time point, within 10% of the scheduled time for each time point. Two extra animals were used for analytic method development.
# Blood (>0.3 mL) were collected via aorta abdominalis in anaesthetic animals into tubes containing heparin at 15 min, 1, 2, 6, 10 and 24 hours after iv administration. Liver and brain tissues were collected immediately after animal death. The liver and brain tissues were excised and rinsed with cold saline to avoid blood residual. Upon collection, each sample was placed on ice and the blood samples were subsequently centrifuged (4° C., 11000 rpm, 5 min) to separate plasma. The obtained plasma, liver and brain tissue samples were stored at −70° C. until LC-MS/MS analysis.
# Two (2) female SD rats per group were dosed by po with 153 or 157. The rats were fasted overnight prior to dosing, with free access to water. Foods were withheld for 2 hours post-dose. Blood samples (>0.3 mL) were collected via aorta abdominalis in anaesthetic animals into tubes containing heparin at 30 min, 1, 2, 6, 10 and 24 hours after po administration.
# To each sample, 30 μL IS-D (for blank samples, 20 μL acetonitrile:water (1:1) was added) and 300 μl acetonitrile was added. The sample mixture was vortexed for approximately 3 min. After centrifugation at 10000 rpm for 5 min at 4° C., 100 μL of the upper layer was transferred to a new tube and added 200 μL 0.4% formic acid in water (pH6.0). The mixture was vortexed for approximately 3 min before injected onto the LC/MS/MS system for analysis.
# On the day of the assay, the frozen liver and brain samples were thawed unassisted at room temperature. An about 200 mg weighed sample of each thawed tissue was placed into a plastic tube with water (0.6 mL) to facilitate homogenization. Tissue processing was conducted using a homogenizer for approximately 1 min, 100 μl homogenate was transferred into a fresh Eppendorf tube. To each tube, 50 μL IS-D was added and mixed. Then 500 μl acetonitrile was added and the sample mixture was vortexed for approximately 3 min. After centrifugation at 10000 rpm for 5 min at 4° C., 100 μL of the upper layer was transferred to a new tube and evaporate the supernatant to dryness at 35° C. Reconstitute the residue with 200 μL of 0.4% formic acid in water (pH 6.0), and vortex for 3 min, submit for LC-MS/MS analysis.
# Frozen unknown plasma samples were completely thawed at room temperature and vortexed thoroughly. With a pipette, 50 μL of plasma was transferred into a 2.0 mL Eppendorf tube. 50 μL of 0.1N HCl and 800 μL ethyl acetate were added into each sample. The sample mixture was vortexed for approximately 3 min.
# [1] = female, SD (Sprague-Dawley), rat, in vivo, iv, 157 in plasma, IV 1.5 mg/kg, Mean
# [2] = female, SD (Sprague-Dawley), rat, in vivo, iv, 157 in plasma, IV 1.5 mg/kg, rat 1
# [3] = female, SD (Sprague-Dawley), rat, in vivo, iv, 157 in plasma, IV 1.5 mg/kg, rat 2
# [4] = female, SD (Sprague-Dawley), rat, in vivo, po, 157 in plasma, PO 1.5 mg/kg, Mean
# [5] = female, SD (Sprague-Dawley), rat, in vivo, po, 157 in plasma, PO 1.5 mg/kg, rat 1
# [6] = female, SD, rat, in vivo, iv, iv 1.5 mg/kg, Mean, read-out: 157 brain concentration
# [7] = female, SD, rat, in vivo, iv, iv 1.5 mg/kg, Mean, read-out: 157 liver concentration
# [8] = female, SD, rat, in vivo, iv, iv 1.5 mg/kg, Rat 1, read-out: 157 brain concentration
# [9] = female, SD, rat, in vivo, iv, iv 1.5 mg/kg, Rat 2, read-out: 157 brain concentration
smiles,measurement,setting,value
"CCCCCCCOC(=O)C1C2CCC(O2)C1C(=O)N1CCN(C)CC1 (stereo not shown) [Compound 157, 3-(4-Methylpiperazine-1-carbonyl)-7-oxa-bicyclo[2,2,1]heptane-2-carboxylic acid heptyl ester]",F,"157, PO 1.5 mg/kg vs IV 1.5 mg/kg, Mean",6.78%
same,conversion to endothal in the plasma (statement),157 administered to rats,converted to endothal
same,Tmax,"157 in Brain, iv 1.5 mg/kg, Mean",15 min
same,Tmax,"157 in Brain, iv 1.5 mg/kg, rat 1",15 min
same,Tmax,"157 in Brain, iv 1.5 mg/kg, rat 2",15 min
same,Tmax,"157 in Liver, iv 1.5 mg/kg, rat 1",15 min
same,Tmax,"157 in Liver, iv 1.5 mg/kg, rat 2",15 min
same,Tmax,"157 in plasma, IV 1.5 mg/kg, Mean",15 min
same,Tmax,"157 in plasma, IV 1.5 mg/kg, rat 2",15 min
same,Tmax,"157 in plasma, PO 1.5 mg/kg, rat 1",30 min
same,AUClast of 157 in brain,157 iv 1.5 mg/kg,24.6 ng·h/g
same,AUClast of 157 in liver,157 iv 1.5 mg/kg,152 ng·h/g
same,oral availability of 157 (statement),157 po 1.5 mg/kg,poorly orally available
same,Tmax,"female, SD (Sprague-Dawley), in vivo, 157 in plasma, IV 1.5 mg/kg, rat 1, read-out: Tmax",15 min
same,AUC(0-inf),[1],47.2 ng·h/mL
same,AUC,[1],47.2 ng·h/mL
same,Cmax,"female, SD (Sprague-Dawley), rat, in vivo, iv, 157 in plasma, IV 1.5 mg/kg, Mean, read-out: Cmax",115 ng/mL
same,MRT last,[1],20.5 min
same,half-life,"female, SD (Sprague-Dawley), rat, in vivo, iv, 157 in plasma, IV 1.5 mg/kg, Mean, read-out: T1/2 (converted)",23.5 min
same,AUC(0-inf),[2],47.1 ng·h/mL
same,AUC,[2],47.1 ng·h/mL
same,Cmax,"female, SD (Sprague-Dawley), rat, in vivo, iv, 157 in plasma, IV 1.5 mg/kg, rat 1, read-out: Cmax",116 ng/mL
same,MRT last,[2],20 min
same,half-life,"female, SD (Sprague-Dawley), rat, in vivo, iv, 157 in plasma, IV 1.5 mg/kg, rat 1, read-out: T1/2 (converted)",24.5 min
same,AUC(0-inf),[3],47.3 ng·h/mL
same,AUC,[3],47.3 ng·h/mL
same,Cmax,"female, SD (Sprague-Dawley), rat, in vivo, iv, 157 in plasma, IV 1.5 mg/kg, rat 2, read-out: Cmax",114 ng/mL
same,MRT last,[3],20.9 min
same,half-life,"female, SD (Sprague-Dawley), rat, in vivo, iv, 157 in plasma, IV 1.5 mg/kg, rat 2, read-out: T1/2 (converted)",22.4 min
same,AUC(0-inf),[4],3.2 ng·h/mL
same,AUC,[4],3.2 ng·h/mL
same,Cmax,"female, SD (Sprague-Dawley), rat, in vivo, po, 157 in plasma, PO 1.5 mg/kg, Mean, read-out: Cmax",6.14 ng/mL
same,MRT last,[4],56.8 min
same,half-life,"female, SD (Sprague-Dawley), rat, in vivo, po, 157 in plasma, PO 1.5 mg/kg, Mean, read-out: T1/2 (converted)",24.2 min
same,AUC(0-inf),[5],3.4 ng·h/mL
same,AUC,[5],3.4 ng·h/mL
same,Cmax,"female, SD (Sprague-Dawley), rat, in vivo, po, 157 in plasma, PO 1.5 mg/kg, rat 1, read-out: Cmax",5.92 ng/mL
same,MRT last,[5],59.3 min
same,half-life,"female, SD (Sprague-Dawley), rat, in vivo, po, 157 in plasma, PO 1.5 mg/kg, rat 1, read-out: T1/2 (converted)",26.2 min
same,Tmax,"female, SD (Sprague-Dawley), rat, in vivo, 157 in plasma, PO 1.5 mg/kg, Mean, read-out: Tmax",30 min
same,half-life,"female, SD, rat, in vivo, iv, 157 iv 1.5 mg/kg, read-out: T1/2 of 157 in brain (converted)",9.72 min
same,half-life,"female, SD, rat, in vivo, iv, 157 iv 1.5 mg/kg, read-out: T1/2 of 157 in liver (converted)",48.8 min
same,half-life,"female, SD, rat, in vivo, iv, 157 iv 1.5 mg/kg, read-out: T1/2 of 157 in plasma (converted)",23.5 min
same,Cmax,"female, SD, rat, in vivo, iv, 157 iv 1.5 mg/kg, read-out: mean Cmax of 157 in brain",60 ng/g
same,Cmax,"female, SD, rat, in vivo, iv, 157 iv 1.5 mg/kg, read-out: mean Cmax of 157 in liver",297 ng/g
same,Cmax,"female, SD, rat, in vivo, iv, 157 iv 1.5 mg/kg, read-out: mean Cmax of 157 in plasma",115 ng/mL
same,concentration at 0.25 h,[6],60 ng/g
same,concentration at 0.25 h,[7],297 ng/g
same,concentration at 0.25 h,[8],60 ng/g
same,concentration at 0.25 h,[9],60 ng/g
same,concentration at 1 h,[6],2.4 ng/g
same,concentration at 1 h,[7],23.5 ng/g
same,concentration at 1 h,[8],1.99 ng/g
same,concentration at 1 h,"female, SD, rat, in vivo, iv, iv 1.5 mg/kg, Rat 1, read-out: 157 liver concentration",29.4 ng/g
same,concentration at 1 h,[9],2.8 ng/g
